Results reported in the supplement of paper PMC10307832.

Columns and labels:
Assay in all cases: relative viability (nuclei count vs DMSO), 5 days (fraction); higher = more cells survive
Everolimus + Phenformin = compound: CO[C@H]1C[C@@H]2CC[C@@H](C)[C@@](O)(O2)C(=O)C(=O)N2CCCC[C@H]2C(=O)O[C@H]([C@H](C)C[C@@H]2CC[C@@H](OCCO)[C@H](OC)C2)CC(=O)[C@H](C)/C=C(\C)[C@@H](O)[C@@H](OC)C(=O)[C@H](C)C[C@H](C)/C=C/C=C/C=C/1C [Everolimus] + N=C(N)NC(=N)NCCc1ccccc1 [Phenformin] (partner 250 µM)
In short: (§1)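 Values are medians from duplicate plates. Each reflects relative viability, defined as the nuclei count of treated wells over that of vehicle wells. Lung cancer cell lines in 1536-well plates were pin-tool dosed one day after seeding with one drug alone or with a fixed anchor-drug dose plus five library-drug doses (not always all listed) in √10 steps, then fixed, stained and imaged at 4× after 5 days.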

Everolimus + Olaparib = compound: CO[C@H]1C[C@@H]2CC[C@@H](C)[C@@](O)(O2)C(=O)C(=O)N2CCCC[C@H]2C(=O)O[C@H]([C@H](C)C[C@@H]2CC[C@@H](OCCO)[C@H](OC)C2)CC(=O)[C@H](C)/C=C(\C)[C@@H](O)[C@@H](OC)C(=O)[C@H](C)C[C@H](C)/C=C/C=C/C=C/1C [Everolimus] + O=C(c1cc(Cc2n[nH]c(=O)c3ccccc23)ccc1F)N1CCN(C(=O)C2CC2)CC1 [Olaparib] (partner 8 µM)
In short: as §1

Everolimus + Trametinib = compound: CO[C@H]1C[C@@H]2CC[C@@H](C)[C@@](O)(O2)C(=O)C(=O)N2CCCC[C@H]2C(=O)O[C@H]([C@H](C)C[C@@H]2CC[C@@H](OCCO)[C@H](OC)C2)CC(=O)[C@H](C)/C=C(\C)[C@@H](O)[C@@H](OC)C(=O)[C@H](C)C[C@H](C)/C=C/C=C/C=C/1C [Everolimus] + CC(=O)Nc1cccc(-n2c(=O)n(C3CC3)c(=O)c3c(Nc4ccc(I)cc4F)n(C)c(=O)c(C)c32)c1 [Trametinib] (partner 0.02 µM)
In short: as §1

Everolimus = compound: CO[C@H]1C[C@@H]2CC[C@@H](C)[C@@](O)(O2)C(=O)C(=O)N2CCCC[C@H]2C(=O)O[C@H]([C@H](C)C[C@@H]2CC[C@@H](OCCO)[C@H](OC)C2)CC(=O)[C@H](C)/C=C(\C)[C@@H](O)[C@@H](OC)C(=O)[C@H](C)C[C@H](C)/C=C/C=C/C=C/1C [Everolimus]
In short: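 Five library-drug doses spaced by √10 were pinned onto vehicle-anchored 1536-well plates of lung cancer cell lines that had been kept overnight at 37 °C. Cells went 5 days without medium change, then were fixed, permeabilised and Hoechst-stained together, imaged at 4× and counted by MetaXpress. Viability is the ratio of treated-well to vehicle-well nuclei, taken as a median over plates. Plates required control CV below 25% and at least one doubling.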

Row | Cell Line | relative viability (Everolimus + Phenformin; first compound 0.01 µM) | relative viability (Everolimus + Phenformin; first compound 0.03162 µM) | relative viability (Everolimus + Phenformin; first compound 0.1 µM) | relative viability (Everolimus + Phenformin; first compound 0.3162 µM) | relative viability (Everolimus + Phenformin; first compound 1 µM) | relative viability (Everolimus + Olaparib; first compound 0.01 µM) | relative viability (Everolimus + Olaparib; first compound 0.03162 µM) | relative viability (Everolimus + Olaparib; first compound 0.1 µM) | relative viability (Everolimus + Olaparib; first compound 0.3162 µM) | relative viability (Everolimus + Olaparib; first compound 1 µM) | relative viability (Everolimus + Trametinib; first compound 0.01 µM) | relative viability (Everolimus + Trametinib; first compound 0.03162 µM) | relative viability (Everolimus + Trametinib; first compound 0.1 µM) | relative viability (Everolimus + Trametinib; first compound 0.3162 µM) | relative viability (Everolimus + Trametinib; first compound 1 µM) | relative viability (Everolimus; 0.01 µM) | relative viability (Everolimus; 0.03162 µM) | relative viability (Everolimus; 0.1 µM) | relative viability (Everolimus; 0.3162 µM) | relative viability (Everolimus; 1 µM)
1 | EPLC-272H | 0.281 | 0.259 | 0.236 | 0.245 | 0.268 | 0.552 | 0.484 | 0.428 | 0.429 | 0.483 | 0.199 | 0.227 | 0.179 | 0.205 | 0.204 | 0.691 | 0.596 | 0.568 | 0.513 | 0.626
2 | UMC-11 | 0.281 | 0.249 | 0.261 | 0.294 | 0.269 | 0.362 | 0.273 | 0.223 | 0.239 | 0.29 | 0.267 | 0.299 | 0.252 | 0.348 | 0.295 | 0.376 | 0.415 | 0.374 | 0.44 | 0.468
3 | NCI-H1792 | 0.154 | 0.129 | 0.162 | 0.129 | 0.0809 | 0.21 | 0.155 | 0.167 | 0.113 | 0.119 | 0.196 | 0.251 | 0.215 | 0.164 | 0.16 | 0.478 | 0.336 | 0.363 | 0.349 | 0.379
4 | NCI-H1993 | 0.525 | 0.498 | 0.533 | 0.468 | 0.454 | 0.584 | 0.364 | 0.499 | 0.529 | 0.558 | 0.423 | 0.469 | 0.486 | 0.464 | 0.536 | 0.675 | 0.61 | 0.596 | 0.685 | 0.626
5 | NCI-H596 | 0.494 | 0.505 | 0.396 | 0.513 | 0.554 | 0.642 | 0.475 | 0.618 | 0.515 | 0.506 | 0.613 | 0.507 | 0.497 | 0.525 | 0.575 | 0.699 | 0.628 | 0.54 | 0.697 | 0.588
6 | NCI-H1793 | 0.294 | 0.242 | 0.329 | 0.313 | 0.29 | 0.346 | 0.345 | 0.319 | 0.343 | 0.235 | 0.315 | 0.247 | 0.247 | 0.312 | 0.228 | 0.435 | 0.305 | 0.351 | 0.376 | 0.299
7 | NCI-H1395 | 0.386 | 0.398 | 0.425 | 0.401 | 0.371 | 0.405 | 0.423 | 0.377 | 0.401 | 0.379 | 0.724 | 0.641 | 0.657 | 0.694 | 0.652 | 0.765 | 0.627 | 0.683 | 0.647 | 0.727
